Experimental data from patent US9072901B2, “Cardiac neuromodulation and methods of using same” (The Board of Regents of the University of Oklahoma, priority 2001, dated 2015).

Columns and labels:
C1 dorsal horn cells = test: Annexin fluorescence histochemistry after ibotenic acid pledget on C1-C2 spinal segments; format: in vivo, rats; settings: pledget on C1-C2 for 2 hrs, after 14-16 hrs
Excerpt: After 14-16 hrs, rats were perfused with fixative and the medulla, C1-2, C3-5 segments were processed for annexin fluorescence histochemistry. Photomicrographs are from the C1 dorsal horn and the gray matter is outlined. […] White arrows point to unlabeled (black) cells in the dorsal horn. […] Annexin binding indicates cells with energy impairment and/or undergoing apotosis. Annexin belongs to a family of proteins that bind acidic phospholipids, particularly phosphotidylserine (PS). PS is assymetically distributed in the cell membrane by the enzyme, aminophospholipid translocase. Following energy impairment, PS distributes to the outer cell leaflet and annexin binding illustrates cells with PS on the outside of the cell.
Chemical disruption of the C1-C2 spinal neurons alters the effects of stimulation of the cardiac afferent input on the regulation of information processing in the cervical and thoracic spinal cord. In order to produce chemical disruption of cells, ibotenic acid was chosen because it is an excitotoxin that has been used effectively in previous studies. Ibotenic acid is a structurally rigid glutamate analog that destroys neuronal perikarya, but spares axons and non-neuronal cells. After ibotenic acid is injected into a nucleus or applied to the surface of the spinal cord, the cells in the region are initially excited and then enter a phase of depolarization block. […]

C1-C2 spinal neurons = test: Vagal inhibition of T3 neuron after ibotenic acid on dorsal C1-C2 spinal cord; format: in vivo; settings: approximately 20 min after ibotenic acid was placed on the spinal cord
Excerpt: FIGS. […] Electrical stimulation of the left cervical vagus (A: LCVS; {30 V, 0.1 ms} ipsilateral to the cell) right cervical vagus (B; RCVS; contralateral) at different frequencies. Vagal stimulation reduced the discharge rate of the evoked response to noxious stimulation of the cardiac afferents intrapericardial injections of bradykinin (C). IA; ibotenic acid. The short horizontal bars represent the period of vagal stimulation, the long horizontal bar represents the bradykinin injection and the numbers indicate the frequencies tested.
Chemical disruption of the C1-C2 spinal neurons alters the effects of stimulation of the cardiac afferent input on the regulation of information processing in the cervical and thoracic spinal cord. In order to produce chemical disruption of cells, ibotenic acid was chosen because it is an excitotoxin that has been used effectively in previous studies. Ibotenic acid is a structurally rigid glutamate analog that destroys neuronal perikarya, but spares axons and non-neuronal cells. After ibotenic acid is injected into a nucleus or applied to the surface of the spinal cord, the cells in the region are initially excited and then enter a phase of depolarization block. […] The advantage of this methodology is that the neuronal relays in the C1-C2 segments can be disrupted without interrupting the axons that pass through this region. […]

## N[C@H](C(=O)O)c1cc(=O)[nH]o1 [ibotenic acid]
C1 dorsal horn cells
  annexin staining of cells: many annexin positive
C1-C2 spinal neurons
  inhibitory effects to vagal stimulation: eliminated
